The target in the assay is T1, canine TRPM8 (Canis lupus familiaris, UniProt Q1A7N1).
T1 construct: expressed in transfected cells
As to the kind of experiment: In Vitro Canine TRPM8 Functional Assay (Ca2+ fluorescence, icilin activation). It is filed as cell-based. The following applies: for inhibition at 0.5 µM: HEK293, 0.5 μM compound, canine TRPM8 HEK293, icilin; for IC50: HEK293 cells stably expressing canine TRPM8, icilin activation, Ca2+ fluorescence. The procedure, abridged:
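Antagonism read as inhibition of the intracellular Ca2+ rise evoked by icilin (~EC80), measured by FLIPR or FDSS. Stable canine TRPM8 HEK293 line, Calcium 3 dye; 5 min compound preincubation. Normalised, basal-corrected peak fluorescence from quadruplicates fitted to sigmoidal curves.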

Each structure is given as a SMILES string.

T1 sequence (Q1A7N1 1-1104): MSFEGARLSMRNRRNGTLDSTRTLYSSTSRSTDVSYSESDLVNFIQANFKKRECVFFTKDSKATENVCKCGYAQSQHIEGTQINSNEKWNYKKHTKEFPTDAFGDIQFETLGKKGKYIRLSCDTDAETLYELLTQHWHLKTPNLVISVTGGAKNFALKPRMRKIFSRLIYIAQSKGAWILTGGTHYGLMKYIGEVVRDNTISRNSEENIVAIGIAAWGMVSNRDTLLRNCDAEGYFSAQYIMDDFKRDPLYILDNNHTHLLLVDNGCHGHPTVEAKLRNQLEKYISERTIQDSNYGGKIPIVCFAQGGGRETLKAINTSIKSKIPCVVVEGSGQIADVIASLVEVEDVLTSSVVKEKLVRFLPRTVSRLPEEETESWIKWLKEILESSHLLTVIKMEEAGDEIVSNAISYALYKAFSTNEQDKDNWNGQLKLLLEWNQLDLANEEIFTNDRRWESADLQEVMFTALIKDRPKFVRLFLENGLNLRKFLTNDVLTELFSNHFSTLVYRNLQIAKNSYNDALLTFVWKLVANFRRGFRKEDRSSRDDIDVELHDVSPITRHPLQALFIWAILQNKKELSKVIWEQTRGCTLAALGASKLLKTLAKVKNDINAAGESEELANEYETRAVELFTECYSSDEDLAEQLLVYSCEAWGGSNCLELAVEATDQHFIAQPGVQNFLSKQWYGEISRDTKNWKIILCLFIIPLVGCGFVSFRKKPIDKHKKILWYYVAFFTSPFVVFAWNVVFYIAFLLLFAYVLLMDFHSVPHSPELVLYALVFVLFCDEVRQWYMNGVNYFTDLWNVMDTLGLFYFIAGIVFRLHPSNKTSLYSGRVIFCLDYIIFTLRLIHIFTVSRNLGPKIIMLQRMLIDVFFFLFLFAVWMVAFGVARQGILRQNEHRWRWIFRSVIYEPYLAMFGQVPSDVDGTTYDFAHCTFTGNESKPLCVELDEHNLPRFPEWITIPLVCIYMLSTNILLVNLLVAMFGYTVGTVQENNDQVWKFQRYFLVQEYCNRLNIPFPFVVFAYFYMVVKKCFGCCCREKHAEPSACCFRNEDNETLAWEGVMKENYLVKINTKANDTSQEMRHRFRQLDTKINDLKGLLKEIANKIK

For `O=C(C(Nc1ccc(F)cc1)c1ccc(C(F)(F)F)cc1)N1Cc2ccccc2C1` (stereo not shown) [Cpd 77], the inhibition at 0.5 µM stood at 98% and the IC50 stood at 84 nM.

For the compound `O=C(C(Nc1cccc(F)c1)c1ccc(C(F)(F)F)cc1)N1CCCC1c1ccccc1Cl` (stereo not shown) [Cpd 78], the inhibition at 0.5 µM was 94% and the IC50 was 138 nM.

In the case of `COc1ccccc1C1CCCN1C(=O)C(Nc1cccc(F)c1)c1ccc(C(F)(F)F)cc1` (stereo not shown) [Cpd 79], the inhibition at 0.5 µM came out at 98% and half-maximal inhibition (IC50) was put at 50 nM.

Turning to `CC(Nc1ccccc1)(C(=O)N1CCCC1c1ccccc1Cl)c1ccc(C(F)(F)F)cc1` (stereo not shown) [Cpd 80, 1-[2-(2-Chloro-phenyl)-pyrrolidin-1-yl]-2-phenylamino-2-(4-trifluoromethyl-phenyl)-propan-1-one], the inhibition at 0.5 µM came to 69%.

Regarding `O=C(C(Nc1ccccc1)c1ccc(Cl)cc1)N1CCCC1c1ccccc1Cl` (stereo not shown) [Cpd 84], the inhibition at 0.5 µM amounted to 98% and the IC50 is 15 nM.

Take `COc1ccccc1C1CCCN1C(=O)C(Nc1ccccc1)c1ccc(Cl)cc1` (stereo not shown) [Cpd 85]: the inhibition at 0.5 µM turned out to be 97% and the IC50 came to 6 nM.

For the compound `O=C(C(Nc1ccccc1)c1ccc(Cl)cc1)N1CCCC1c1ccccc1` (stereo not shown) [Cpd 86], the inhibition at 0.5 µM was found to be 97% and half-maximal inhibition (IC50) required 15 nM.

With `O=C(C(Nc1ccccc1)c1ccc(Cl)cc1)N1Cc2ccccc2C1` (stereo not shown) [Cpd 87], the inhibition at 0.5 µM came to 97% and the IC50 was 81 nM.

Turning to `O=C(C(Nc1ccccc1)c1ccc(Cl)cc1)N1CCc2ccccc2C1` (stereo not shown) [Cpd 88], the inhibition at 0.5 µM was 99% and the IC50 came to 96 nM.

In the case of `O=C(C(Nc1ccccc1F)c1ccc(Br)cc1)N1CCCC1c1ccccc1Cl` (stereo not shown) [Cpd 89], the inhibition at 0.5 µM is 98% and half-maximal inhibition (IC50) required 20 nM.

On to `O=C(C(Nc1ccccc1F)c1ccc(Br)cc1)N1CCCC1c1ccccc1` (stereo not shown) [Cpd 91], for which the inhibition at 0.5 µM worked out at 97% and the IC50 turned out to be 14 nM.

On to `O=C(C(Nc1ccccc1F)c1ccc(Br)cc1)N1Cc2ccccc2C1` (stereo not shown) [Cpd 92], for which the inhibition at 0.5 µM was determined as 98% and it took 89 nM to reach half-maximal inhibition (IC50).

As to `O=C(C(Nc1ccccc1F)c1ccc(Br)cc1)N1CCc2ccccc2C1` (stereo not shown) [Cpd 93], the inhibition at 0.5 µM came to 95% and the midpoint of inhibition, the IC50, lay at 176 nM.

`O=C(C(Nc1ccccc1)c1cccc(C(F)(F)F)c1)N1CCCC1c1ccccc1Cl` (stereo not shown) [Cpd 97]: the inhibition at 0.5 µM is 100% and half-maximal inhibition (IC50) required 89 nM.

On to `COc1ccccc1C1CCCN1C(=O)C(Nc1ccccc1)c1cccc(C(F)(F)F)c1` (stereo not shown) [Cpd 98], for which the inhibition at 0.5 µM came out at 100% and the IC50 is 56 nM.

Regarding `O=C(C(Nc1ccccc1)c1cccc(C(F)(F)F)c1)N1Cc2ccccc2C1` (stereo not shown) [Cpd 99], the inhibition at 0.5 µM worked out at 99% and inhibition was half-maximal at 89 nM (IC50).

Take `O=C(C(CNc1ccccc1)c1ccc(C(F)(F)F)cc1)N1Cc2ccccc2C1` (stereo not shown) [Cpd 100]: the inhibition at 0.5 µM worked out at 90% and the IC50 was found to be 290 nM.

Turning to `O=C(C(CNc1ccccc1)c1ccc(C(F)(F)F)cc1)N1CCc2ccccc2C1` (stereo not shown) [Cpd 102], the inhibition at 0.5 µM stood at 98% and the IC50 stood at 159 nM.

Consider `O=C(C(CNc1ccccc1)c1ccc(C(F)(F)F)cc1)N1CCCC1c1ccccc1F` (stereo not shown) [Cpd 103], for which the inhibition at 0.5 µM is 75% and it took 182 nM to reach half-maximal inhibition (IC50).

Take `COc1ccc(C(Nc2sccc2C#N)C(=O)N2CCCC2c2ccccc2Cl)cc1` (stereo not shown) [Cpd 105]: the inhibition at 0.5 µM is 88% and the IC50 is 432 nM.

Consider `O=C(C(CNc1ccccc1F)c1ccc(C(F)(F)F)cc1)N1Cc2ccccc2C1` (stereo not shown) [Cpd 106], for which the inhibition at 0.5 µM came out at 98% and the IC50 was determined as 170 nM.

As to `O=C(C(CNc1ccccc1F)c1ccc(C(F)(F)F)cc1)N1CCCC1c1ccccc1` (stereo not shown) [Cpd 108], the inhibition at 0.5 µM is 88% and the IC50 was determined as 329 nM.

Turning to `O=C(C(Nc1ccccc1F)c1ccc(Cl)cc1)N1CCCC1c1ccccc1Cl` (stereo not shown) [Cpd 110], the inhibition at 0.5 µM worked out at 98% and it took 55.4 nM to reach half-maximal inhibition (IC50).

For `COc1ccccc1C1CCCN1C(=O)C(Nc1ccccc1F)c1ccc(Cl)cc1` (stereo not shown) [Cpd 111], the inhibition at 0.5 µM amounted to 96% and the IC50 worked out at 13 nM.

Consider `O=C(C(Nc1ccccc1F)c1ccc(Cl)cc1)N1CCCC1c1ccccc1` (stereo not shown) [Cpd 112], for which the inhibition at 0.5 µM was determined as 96% and it took 18.1 nM to reach half-maximal inhibition (IC50).

As for `O=C(C(Nc1ccccc1F)c1ccc(Cl)cc1)N1Cc2ccccc2C1` (stereo not shown) [Cpd 113], the inhibition at 0.5 µM amounted to 98% and the midpoint of inhibition, the IC50, lay at 61.7 nM.

Regarding `O=C(C(Nc1ccccc1F)c1ccc(Cl)cc1)N1Cc2cccc(F)c2C1` (stereo not shown) [Cpd 114], the inhibition at 0.5 µM came out at 98% and the 50% inhibitory concentration (IC50) came to 126 nM.

Consider `O=C(C(Nc1ccccc1F)c1ccc(Cl)cc1)N1CCCC1c1ccccc1F` (stereo not shown) [Cpd 115], for which the inhibition at 0.5 µM amounted to 97% and half-maximal inhibition (IC50) was put at 10.1 nM.

For the compound `O=C(C(Nc1ccc(F)cc1)c1ccc(Cl)cc1)N1CCCC1c1ccccc1Cl` (stereo not shown) [Cpd 116], the inhibition at 0.5 µM came to 98% and the IC50 was 80.3 nM.

For the compound `O=C(C(Nc1ccc(F)cc1)c1ccc(Cl)cc1)N1CCCC1c1ccccc1F` (stereo not shown) [Cpd 117], the inhibition at 0.5 µM was 101% and it took 47.5 nM to reach half-maximal inhibition (IC50).

Take `COc1ccccc1C1CCCN1C(=O)C(Nc1ccc(F)cc1)c1ccc(Cl)cc1` (stereo not shown) [Cpd 118]: the inhibition at 0.5 µM came out at 100% and the IC50 is 31.7 nM.

As to `O=C(C(Nc1ccc(F)cc1)c1ccc(Cl)cc1)N1CCCC1c1ccccc1` (stereo not shown) [Cpd 119], the inhibition at 0.5 µM is 100% and 69.7 nM corresponded to half-maximal inhibition (IC50).

As to `O=C(C(Nc1ccc(F)cc1)c1ccc(Cl)cc1)N1Cc2ccccc2C1` (stereo not shown) [Cpd 120], the inhibition at 0.5 µM amounted to 95% and the IC50 was found to be 130 nM.

Take `O=C(C(Nc1ccc(F)cc1)c1ccc(Cl)cc1)N1Cc2cccc(F)c2C1` (stereo not shown) [Cpd 121]: the inhibition at 0.5 µM is 97% and the IC50 came out at 125 nM.

Take `O=C(C(Nc1ccc(F)cc1F)c1ccc(Cl)cc1)N1CCCC1c1ccccc1Cl` (stereo not shown) [Cpd 122]: the inhibition at 0.5 µM amounted to 96% and inhibition was half-maximal at 147 nM (IC50).

As for `O=C(C(Nc1ccc(F)cc1F)c1ccc(Cl)cc1)N1CCCC1c1ccccc1F` (stereo not shown) [Cpd 123], the inhibition at 0.5 µM came to 97% and the IC50 was 101 nM.

In the case of `COc1ccccc1C1CCCN1C(=O)C(Nc1ccc(F)cc1F)c1ccc(Cl)cc1` (stereo not shown) [Cpd 124], the inhibition at 0.5 µM was determined as 98% and 81.7 nM corresponded to half-maximal inhibition (IC50).

`O=C(C(Nc1ccc(F)cc1F)c1ccc(Cl)cc1)N1CCCC1c1ccccc1` (stereo not shown) [Cpd 125]: the inhibition at 0.5 µM was determined as 96% and the concentration for half-maximal inhibition (IC50) stood at 62.3 nM.

As to `O=C(C(Nc1ccc(F)cc1F)c1ccc(Cl)cc1)N1Cc2ccccc2C1` (stereo not shown) [Cpd 126], the inhibition at 0.5 µM worked out at 100% and 111 nM corresponded to half-maximal inhibition (IC50).

On to `O=C(C(Nc1ccc(F)cc1F)c1ccc(Cl)cc1)N1Cc2cccc(F)c2C1` (stereo not shown) [Cpd 127], for which the inhibition at 0.5 µM turned out to be 97% and the IC50 is 86.9 nM.

With `O=C(C(Nc1ccccc1F)c1ccc(C(F)(F)F)cc1)N1CCCC1c1cccc(F)c1` (stereo not shown) [Cpd 132], the inhibition at 0.5 µM is 99% and the IC50 worked out at 9 nM.

Take `O=C(C(Nc1ccccc1F)c1ccc(C(F)(F)F)cc1)N1CCCC1c1ccc(F)cc1` (stereo not shown) [Cpd 135]: the inhibition at 0.5 µM came to 100% and the IC50 is 37.4 nM.

As to `COc1ccc(NC(C(=O)N2CCCC2c2ccccc2Cl)c2ccc(Cl)cc2)cc1` (stereo not shown) [Cpd 136], the inhibition at 0.5 µM was found to be 90% and half-maximal inhibition (IC50) was put at 193 nM.

Turning to `COc1ccc(NC(C(=O)N2CCCC2c2ccccc2F)c2ccc(Cl)cc2)cc1` (stereo not shown) [Cpd 137], the inhibition at 0.5 µM was found to be 81% and the IC50 is 101 nM.

`COc1ccc(NC(C(=O)N2CCCC2c2ccccc2OC)c2ccc(Cl)cc2)cc1` (stereo not shown) [Cpd 138]: the inhibition at 0.5 µM worked out at 95% and the IC50 worked out at 119 nM.

For `COc1ccc(NC(C(=O)N2CCCC2c2ccccc2)c2ccc(Cl)cc2)cc1` (stereo not shown) [Cpd 139], the inhibition at 0.5 µM is 81% and half-maximal inhibition (IC50) was put at 116 nM.

Consider `COc1ccc(NC(C(=O)N2Cc3ccccc3C2)c2ccc(Cl)cc2)cc1` (stereo not shown) [Cpd 140], for which the inhibition at 0.5 µM turned out to be 97% and the 50% inhibitory concentration (IC50) came out at 131 nM.

In the case of `COc1ccc(NC(C(=O)N2Cc3cccc(F)c3C2)c2ccc(Cl)cc2)cc1` (stereo not shown) [Cpd 141], the inhibition at 0.5 µM amounted to 79% and the IC50 was 188 nM.

For the compound `O=C(C(Nc1ccccc1)c1ccc(Cl)cc1)N1CCCC1c1ccccc1F` (stereo not shown) [Cpd 142], the inhibition at 0.5 µM came out at 97% and the IC50 was 18 nM.

Regarding `O=C(C(Nc1c(F)cccc1F)c1ccc(Cl)cc1)N1CCCC1c1ccccc1Cl` (stereo not shown) [Cpd 143], the inhibition at 0.5 µM is 101% and the IC50 was determined as 25 nM.

As to `O=C(C(Nc1c(F)cccc1F)c1ccc(Cl)cc1)N1CCCC1c1ccccc1F` (stereo not shown) [Cpd 144], the inhibition at 0.5 µM came to 102% and the IC50 was found to be 11 nM.

For `COc1ccccc1C1CCCN1C(=O)C(Nc1c(F)cccc1F)c1ccc(Cl)cc1` (stereo not shown) [Cpd 145], the inhibition at 0.5 µM amounted to 99% and the IC50 was determined as 16 nM.

Turning to `O=C(C(Nc1c(F)cccc1F)c1ccc(Cl)cc1)N1CCCC1c1ccccc1` (stereo not shown) [Cpd 146], the inhibition at 0.5 µM is 99% and the IC50 amounted to 12 nM.

In the case of `O=C(C(Nc1c(F)cccc1F)c1ccc(Cl)cc1)N1Cc2ccccc2C1` (stereo not shown) [Cpd 147], the inhibition at 0.5 µM worked out at 93% and 132 nM corresponded to half-maximal inhibition (IC50).

In the case of `COc1ccccc1C1CCCN1C(=O)C(Nc1ccccc1F)c1ccc(C(F)(F)F)cc1` (stereo not shown) [Cpd 148], the inhibition at 0.5 µM stood at 99% and inhibition was half-maximal at 12 nM (IC50).

Regarding `COc1ccccc1C1CCCN1C(=O)C(Nc1cccc(F)c1F)c1ccc(Cl)cc1` (stereo not shown) [Cpd 167], the inhibition at 0.5 µM stood at 97% and it took 34 nM to reach half-maximal inhibition (IC50).

In the case of `O=C(C(Nc1cccc(F)c1F)c1ccc(Cl)cc1)N1CCCC1c1ccccc1` (stereo not shown) [Cpd 168], the inhibition at 0.5 µM was determined as 97% and half-maximal inhibition (IC50) required 35 nM.

As to `O=C(C(Nc1cccc(F)c1F)c1ccc(Cl)cc1)N1Cc2ccccc2C1` (stereo not shown) [Cpd 169], the inhibition at 0.5 µM worked out at 92% and half-maximal inhibition (IC50) required 142 nM.

Broadly, the inhibition is the drop in the measured response relative to a control, in per cent. One may read the IC50 as the concentration that inhibits the measured activity by half. A low value points to inhibition by little substance.
